Reference: publication PMC10223284, “Category-Based Toxicokinetic Evaluations of Data-Poor Per- and Polyfluoroalkyl Substances (PFAS) using Gas Chromatography Coupled with Mass Spectrometry” (Toxics, 2023)
Where “and” joins values, the source holds several entries; their conditions need not be identical. Equal entries are not always repeated. Where two headings read alike, the source gives them in different places.

Key:
human plasma [1] = conditions: for Mean fu: plasma
[2] = tested on: pooled human cryopreserved primary hepatocyte suspensions; experiment: Hepatic metabolic stability (hepatocyte clearance) assay, substrate depletion; type: in vitro ADME; conditions: for Linear Regression Results, Best-Fit Values, Slope: hepatocyte time course
Summary of the method: (§1)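 Pooled 50-donor human cryopreserved hepatocytes (50,000 cells/100 μL) incubated with 1 μM compound at 37 °C with shaking. Parent loss quantified against internal standards over time to T240 in triplicate; T½ and Clint (μL/min/million cells) from ln concentration vs time, corrected for abiotic loss in cell-free and inactivated-hepatocyte controls.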

[3] = Abiotic loss in negative controls of the hepatocyte clearance assay (cell-free media, metabolically inactivated hepatocytes); type: in vitro ADME; conditions: for HT BkgdCl, Slope: heat treated hepatocytes control
Summary of the method: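 Test compound at 1 μM incubated at 37 °C with shaking in complete William's medium E, either cell-free or with metabolically inactivated hepatocytes, then quenched with ice-cold acetonitrile for quantitative analysis.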

human primary cells = conditions: cited from earlier work
in vitro = conditions: both, human, plasma
human plasma [4] = conditions: for PPB_Stab_Fail / % remaining_PPB: plasma
[5] = In vitro-in vivo extrapolation (IVIVE) to Css and administered equivalent dose (AED); set-up: species or system human; conditions: for Clhep: IVIVE, hepatocyte Clint scaled to whole-liver clearance; for AED: administered equivalent dose from LOEC and Css; for Fub: fub=fup/(B:P), Fub set to 1 if needed; for CLint: scaled with HPGL 110 mill cells/g, Vl 1596 g
Summary of the method: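 Measured plasma protein binding (fup) and hepatocyte Clint served as IVIVE inputs to estimate human steady-state plasma concentration (Css). fup was converted to blood unbound fraction using blood:plasma partitioning, and Clint was scaled to whole-liver clearance (L/h). AEDs were derived by combining Css with published in vitro lowest-observed effective concentrations.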

human plasma [6] = experiment: Ultracentrifugation (UC) plasma protein binding assay, fraction unbound in plasma (fup)
[7] = Hepatic metabolic stability (hepatocyte clearance) assay, substrate depletion; type: in vitro ADME, human; conditions: both sexes, human
Summary of the method: as §1

human plasma [8] = experiment: Chemical stability in plasma over the UC assay time course (T5hr/T1hr)
[9] = BioSeek lowest-observed effect concentration used for AED
[10] = minimum lowest-observed effect concentration, BioSeek platform
[11] = Fraction Unbound (fu), Run-specific Avg
[12] = Assuming 1 mg/kg/day dose rate, BW 70 kg
[13] = human steady-state plasma concentration, assuming 1 mg/kg/day dosage
[14] = flag for stability failure in hepatocyte clearance assay controls (1 or Fst = fail, 0 = pass)
[15] = hepatocyte incubation, Rep 1-3, start conc 1000 nM
[16] = heat treated hepatocytes, Rep 1-3

NC(=O)C(F)(F)C(F)(F)F [Pentafluoropropionamide]
Fup.Med (human plasma [1]; both, human, 5 h, 10 μM): 0.754 | Fup.point (human plasma [1]; both, human, 5 h, 10 μM): 0.789 | Concentration (nM), Time 120 min ([2]; both, human, 120 min, 1 μM): 809.577 nM | In Vitro Clint ([2]; both, human, hepatocytes, 1 μM): 0.00 μL/min/10^6 cells | in vitro CLint ([2]; both, human, hepatocytes, 1 μM): 0 mL/min/106 cells | Linear Regression Results, Best-Fit Values, Slope [2]: -0.00227 | Bkgd-Sub Clearance (µL/min/106 hepatocytes) ([2]; human, hepatocytes): 0.00 µL/min/106 hepatocytes | Bkgd_adj_Clint ([2]; human, hepatocytes): 0.00 | Unadj Clint ([2]; human, hepatocytes): 0.00 | Unadj in vitro Clint ([2]; human, hepatocytes): 0.00 | clearance rate in hepatocytes ([2]; human, hepatocytes): no clearance | Clint.1.Med ([2]; human, s9): 0 | No Cells BkgdCl, Clearance ([3]; 1 μM): 7.66 | half-life at 1 μM ([3]; both sexes, human, hepatocytes): 3.65 h | HT BkgdCl, Clearance ([3]; both, human, 1 μM): 6.324 | Hep_Stab_Fail ([3]; both, human, 120 min, 1 μM): 0 | half-life at 1 μM ([3]; buffer): 3.02 h | HT BkgdCl, Slope ([3]; 0 vs 240 min): -0.003162 | No Cells BkgdCl, Slope ([3]; no cells control, 0 vs 240 min): -0.00383 | LOEC (human primary cells; [9]): 20.00 µM | LOEC (human primary cells; [10]): 20 µM | fraction unbound at 5 h, 10 μM (in vitro; [11]): 0.81 | fraction unbound at 5 h, 10 μM (in vitro; Fraction Unbound (fu), replicates A, B, C): 0.788 | fraction unbound at 5 h, 10 μM (in vitro; Mean Fu): 0.809 | fraction unbound at 5 h, 10 μM (in vitro; Mean fu): 0.809 | Unstable (human plasma [4]): Y | Fstable.Med (human plasma [4]; both, human, 5 h, 10 μM): 0.19 | Mean Stability (human plasma [4]; both, human, 5 h, 10 μM): 0.711 | Stability (T5hr/ T1hr), Run-specific Avg (human plasma [4]; both, human, 5 h, 10 μM): 0.719 | PPB_Stab_Fail (human plasma [4]; both, human, 5 h, 10 μM): 0 | Css [5, 12]: 0.44 mg/L and 2.69 uM | Clhep [5]: 0.000 L/h | AED [5]: 7.4314 mg/kg/day | Fub [5]: 1 | Css [5, 13]: 2.69 µM | Css ([5]; human steady-state plasma concentration, assuming 1 mg/kg/day dosage, listed as pentafluoropropionamide): 2.1 to 2.7 µM | CLint [5]: 0 µL/min

C=C(C)C(=O)OCCC(F)(F)C(F)(F)C(F)(F)C(F)(F)C(F)(F)C(F)(F)C(F)(F)C(F)(F)F [8:2 Fluorotelomer methacrylate]
Fup.Med (human plasma [1]): 0.0461 | Fup.point (human plasma [1]): 0.0503 | Mean fu (human plasma [1]; human): 0.09 | Hep_Stab_Fail [3, 14]: 1 | Fstable.Med (human plasma [4]): 0.0797 | Unstable (human plasma [4]): Y | % remaining_PPB (human plasma [4]; human): 66% | PPB_Stab_Fail (human plasma [4]; human): 0

OCC(F)(F)C(F)(F)C(F)(F)C(F)(F)C(F)(F)C(F)(F)CO [1H,1H,8H,8H-Perfluorooctane-1,8-diol]
Aqueous Fraction (human plasma [6]; amount measured in aqueous fraction after ultracentrifugation, replicates A, B, C, unit not given): 467.47 and 486.886 and 467.528 and 459.225 and 404.056 and 403.816 | fup (human plasma [6]; human plasma, 10 μM, ultracentrifugation, 37 °C): 0.0560 | Fup.Med (human plasma [6]; median fraction unbound in plasma, UC assay Level4): 0.0465 | Fup.point (human plasma [6]; point estimate of fraction unbound in plasma, UC assay Level4): 0.0506 | hepatocyte CLint at 1 μM ([7]; hepatocytes, background-subtracted, read-out: Bkgd-Sub Clearance (µL/min/106 hepatocytes)): 20 µL/min/1e6 cells | hepatocyte CLint at 1 μM ([7]; hepatocytes, hepatocyte clearance, Conc 1000 nM, not background adjusted, read-out: Unadj Clint): 22.8 µL/min/1e6 cells | hepatocyte CLint at 1 μM ([7]; hepatocytes, pooled human hepatocyte suspensions, 1 μM, read-out: In Vitro Clint): 20 µL/min/1e6 cells | hepatocyte CLint at 1 μM ([7]; hepatocytes, unadjusted hepatocyte intrinsic clearance, read-out: Unadj in vitro Clint): 22.8 µL/min/1e6 cells | hepatocyte CLint at 1 μM ([7]; hepatocytes, hepatocyte time course, NS = slope not significant, read-out: Linear Regression Results, Best-Fit Values, Clearance): 22.8 µL/min/1e6 cells | half-life at 1 μM ([7]; hepatocytes, hepatocyte time course, NS = slope not significant, read-out: Linear Regression Results, Best-Fit Values, Half Life): 1.01 h | hepatocyte CLint at 1 μM ([7]; s9, Bayesian analysis median, 1 μM assay concentration (Table S9), read-out: Clint.1.Med): 5.03 µL/min/1e6 cells | Concentration (nM), Time 0 min [2, 15]: 833.88 nM and 886.538 nM and 918.72 nM | Concentration (nM), Time 15 min [2, 15]: 552.068 nM and 564.688 nM and 626.636 nM | Concentration (nM), Time 30 min [2, 15]: 572.698 nM and 772.55 nM and 675.577 nM | Concentration (nM), Time 60 min [2, 15]: 915.509 nM and 882.56 nM and 951.955 nM | Concentration (nM), Time 120 min [2, 15]: 252.926 nM and 197.823 nM and 212.459 nM | Linear Regression Results, Best-Fit Values, Slope [2]: -0.01141 | half-life at 1 μM ([3]; buffer, no cells control, 0 vs 240 min, read-out: No Cells BkgdCl, Half Life): 8.21 h | Hep_Stab_Fail [3, 14]: 0 | HT BkgdCl, Slope ([3]; 0 vs 240 min): -0.00103 | Negative Controls, Heat Treated (HT), concentration at 0 min [3, 16]: 1090.28 nM and 973.38 nM and 645.077 nM | Negative Controls, Heat Treated (HT), concentration at 240 min [3, 16]: 595.287 nM and 737.448 nM and 742.842 nM | No Cells BkgdCl, Slope ([3]; no cells control, 0 vs 240 min): -0.001407 | Negative Controls, No cells (NC), concentration at 0 min ([3]; no cells, Rep 1-3): 937.465 nM and 878.747 nM and 1163.86 nM | Negative Controls, No cells (NC), concentration at 240 min ([3]; no cells, Rep 1-3): 676.807 nM and 658.518 nM and 781.013 nM | LOEC (human primary cells; [9]): 7.00 µM | LOEC (human primary cells; [10]): 7 µM | fraction unbound (in vitro; Fraction Unbound (fu), Run-specific Avg, average of one UC run (run date in line above)): 0.0529 | fraction unbound (in vitro; Fraction Unbound (fu), individual replicates A, B, C of the UC run named in c8): 0.0626 | fraction unbound (in vitro; Mean fu, fraction unbound in human plasma, ultracentrifugation, some values based on eLOQ): 0.056 | Time 1 hr (human plasma [8]; amount measured in plasma sample at 1 hr, replicates A, B, C, unit not given): 8242.79 and 6998.48 and 7495.85 and 8652.78 and 7694.03 and 8210.48 | Time 5 hr (human plasma [8]; amount measured in plasma sample at 5 hr, replicates A, B, C, unit not given): 7470.56 and 8168.83 and 8821.07 and 7477.64 (2×) and 9359.65 | Stability (T5hr/ T1hr), Run-specific Avg (human plasma [8]; average of one UC run (run date in line above)): 0.913 | PPB_Stab_Fail (human plasma [8]; flag for stability failure in the plasma protein binding assay (1 = fail, 0 = pass)): 0 | Mean Stability (human plasma [8]; mean T5hr/T1hr ratio over all replicates and runs, plasma): 0.997 | Fstable.Med (human plasma [8]; median fraction stable in plasma, UC assay Level4): 0.989 | Css [5, 12]: 0.16 mg/L and 0.45 uM | Clhep [5]: 17.326 L/h | AED [5]: 15.5263 mg/kg/day | Fub [5]: 0.1018 | Css [5, 13]: 0.45 µM | CLint [5]: 3512253 µL/min

C=C(C)C(=O)OCC(F)(F)C(F)(F)C(F)(F)C(F)(F)C(F)(F)C(F)(F)C(F)(F)F [1H,1H-Perfluorooctyl methacrylate]
Fup.Med (human plasma [1]): 0.0638 | Fup.point (human plasma [1]): 0.0665 | Mean fu (human plasma [1]; human): 0.1300 | Hep_Stab_Fail [3, 14]: 1 | Fstable.Med (human plasma [4]): 0.042 | Unstable (human plasma [4]): Y | % remaining_PPB (human plasma [4]; human): 49% | PPB_Stab_Fail (human plasma [4]; human): 0

COC(=O)C(F)(F)C(F)(F)OC(F)(C(F)(F)F)C(F)(F)OC(F)=C(F)F (stereo not shown) [Methyl perfluoro(3-(1-ethenyloxypropan-2-yloxy)propanoate)]
Aqueous Fraction, Run-specific Avg (human plasma [1]; both, human, 5 h, 10 μM): 200.27 | Fup.Med (human plasma [1]; both, human, 5 h, 10 μM): 0.0161 | Fup.point (human plasma [1]; both, human, 5 h, 10 μM): 0.0235 | Hep_Stab_Fail ([3]; both, human, 120 min, 1 μM): 1 | fraction unbound at 5 h, 10 μM (in vitro; [11]): 0.0232 | fraction unbound at 5 h, 10 μM (in vitro; Mean Fu): 0.023 | Unstable (human plasma [4]): Y | Time 1 hr, Run-specific Avg (human plasma [4]; both, human, 1 h, 10 μM): 11859.81 | Fstable.Med (human plasma [4]; both, human, 5 h, 10 μM): 0.224 | Mean Stability (human plasma [4]; both, human, 5 h, 10 μM): 0.836 | Stability (T5hr/ T1hr), Run-specific Avg (human plasma [4]; both, human, 5 h, 10 μM): 0.726 | Time 5 hr, Run-specific Avg (human plasma [4]; both, human, 5 h, 10 μM): 8614.65 | PPB_Stab_Fail (human plasma [4]; both, human, 5 h, 10 μM): 1

C=C(C)C(=O)OCC(F)(F)C(F)(F)C(F)(F)F [1H,1H-Perfluorobutyl methacrylate]
Fup.Med (human plasma [1]): 0.716 | Fup.point (human plasma [1]): 0.706 | Hep_Stab_Fail [3, 14]: 1 | Fstable.Med (human plasma [4]): 0.0018 | Unstable (human plasma [4]): Y | % remaining_PPB (human plasma [4]; human): 8% | PPB_Stab_Fail (human plasma [4]; human): 1
